Results reported in ChEMBL document CHEMBL1201862, “PubChem BioAssay data set” (2004).
The source made the active and inactive calls.

Tests used:
[1] = target: T1, Calpain-2 catalytic subunit (Sus scrofa, UniProt P43367); assay: m-calpain protease blockers, concentration series – biochemical, fluorogenic peptide substrate, dose response (AID 1420); type: functional
T1 sequence (P43367 whole entry): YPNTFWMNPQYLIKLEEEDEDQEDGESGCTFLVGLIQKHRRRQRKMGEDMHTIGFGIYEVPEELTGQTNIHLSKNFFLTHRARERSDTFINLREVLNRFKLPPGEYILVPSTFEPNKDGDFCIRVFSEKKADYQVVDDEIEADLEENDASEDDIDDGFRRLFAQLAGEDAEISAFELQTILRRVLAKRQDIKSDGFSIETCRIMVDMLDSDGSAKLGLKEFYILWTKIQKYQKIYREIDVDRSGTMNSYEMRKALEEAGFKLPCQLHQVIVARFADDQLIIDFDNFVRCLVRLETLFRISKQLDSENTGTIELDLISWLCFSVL

INS1 = assay: INS-1E survival protection against cytokine death – cell-based, luminescence, retest, dose response (AID 449756); type: functional; conditions: Rattus norvegicus;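 further: cell death triggered by IL-1 beta plus TNF-alpha plus IFN-gamma mixture; protective hits raise ATP signal compared with cytokine alone wells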
[2] = target: T2, Sentrin-specific protease 7 (Homo sapiens, UniProt Q9BQF6); type: functional;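 further: Luminescence-based dose-response confirmation of ultra-high-throughput screening hits, measuring inhibition of SENP7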
T2 sequence (Q9BQF6 whole entry): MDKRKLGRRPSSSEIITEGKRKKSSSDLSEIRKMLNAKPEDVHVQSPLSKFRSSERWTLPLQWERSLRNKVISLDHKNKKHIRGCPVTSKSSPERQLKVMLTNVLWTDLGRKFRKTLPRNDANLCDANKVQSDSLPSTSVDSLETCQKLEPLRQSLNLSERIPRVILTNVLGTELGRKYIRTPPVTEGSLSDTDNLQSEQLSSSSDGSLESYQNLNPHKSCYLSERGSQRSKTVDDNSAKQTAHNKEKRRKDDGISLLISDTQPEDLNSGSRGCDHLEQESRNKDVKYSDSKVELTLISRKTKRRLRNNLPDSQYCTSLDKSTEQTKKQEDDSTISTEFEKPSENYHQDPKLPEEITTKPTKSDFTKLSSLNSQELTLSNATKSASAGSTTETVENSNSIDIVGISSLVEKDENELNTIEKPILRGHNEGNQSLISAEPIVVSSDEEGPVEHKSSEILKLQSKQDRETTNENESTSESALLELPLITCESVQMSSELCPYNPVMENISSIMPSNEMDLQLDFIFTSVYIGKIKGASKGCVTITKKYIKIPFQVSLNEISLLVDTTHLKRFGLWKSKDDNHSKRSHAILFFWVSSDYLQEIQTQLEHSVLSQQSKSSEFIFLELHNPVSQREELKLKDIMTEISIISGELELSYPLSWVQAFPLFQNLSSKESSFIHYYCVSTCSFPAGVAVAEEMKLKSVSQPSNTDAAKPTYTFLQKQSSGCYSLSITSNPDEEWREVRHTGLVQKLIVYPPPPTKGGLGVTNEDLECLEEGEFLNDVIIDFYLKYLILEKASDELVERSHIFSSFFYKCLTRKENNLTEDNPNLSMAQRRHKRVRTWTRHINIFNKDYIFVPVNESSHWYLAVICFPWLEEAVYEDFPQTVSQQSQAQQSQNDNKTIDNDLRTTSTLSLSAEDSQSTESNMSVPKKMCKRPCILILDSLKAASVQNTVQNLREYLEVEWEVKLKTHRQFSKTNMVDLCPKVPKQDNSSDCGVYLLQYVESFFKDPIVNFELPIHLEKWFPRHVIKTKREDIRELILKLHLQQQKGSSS

[3] = target: T3, Sentrin-specific protease 6 (Homo sapiens, UniProt Q9GZR1); type: functional;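 further: Luminescence-based dose-response confirmatory assay of SENP6 inhibition, following up an ultra-high-throughput screen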
T3 sequence (Q9GZR1 whole entry): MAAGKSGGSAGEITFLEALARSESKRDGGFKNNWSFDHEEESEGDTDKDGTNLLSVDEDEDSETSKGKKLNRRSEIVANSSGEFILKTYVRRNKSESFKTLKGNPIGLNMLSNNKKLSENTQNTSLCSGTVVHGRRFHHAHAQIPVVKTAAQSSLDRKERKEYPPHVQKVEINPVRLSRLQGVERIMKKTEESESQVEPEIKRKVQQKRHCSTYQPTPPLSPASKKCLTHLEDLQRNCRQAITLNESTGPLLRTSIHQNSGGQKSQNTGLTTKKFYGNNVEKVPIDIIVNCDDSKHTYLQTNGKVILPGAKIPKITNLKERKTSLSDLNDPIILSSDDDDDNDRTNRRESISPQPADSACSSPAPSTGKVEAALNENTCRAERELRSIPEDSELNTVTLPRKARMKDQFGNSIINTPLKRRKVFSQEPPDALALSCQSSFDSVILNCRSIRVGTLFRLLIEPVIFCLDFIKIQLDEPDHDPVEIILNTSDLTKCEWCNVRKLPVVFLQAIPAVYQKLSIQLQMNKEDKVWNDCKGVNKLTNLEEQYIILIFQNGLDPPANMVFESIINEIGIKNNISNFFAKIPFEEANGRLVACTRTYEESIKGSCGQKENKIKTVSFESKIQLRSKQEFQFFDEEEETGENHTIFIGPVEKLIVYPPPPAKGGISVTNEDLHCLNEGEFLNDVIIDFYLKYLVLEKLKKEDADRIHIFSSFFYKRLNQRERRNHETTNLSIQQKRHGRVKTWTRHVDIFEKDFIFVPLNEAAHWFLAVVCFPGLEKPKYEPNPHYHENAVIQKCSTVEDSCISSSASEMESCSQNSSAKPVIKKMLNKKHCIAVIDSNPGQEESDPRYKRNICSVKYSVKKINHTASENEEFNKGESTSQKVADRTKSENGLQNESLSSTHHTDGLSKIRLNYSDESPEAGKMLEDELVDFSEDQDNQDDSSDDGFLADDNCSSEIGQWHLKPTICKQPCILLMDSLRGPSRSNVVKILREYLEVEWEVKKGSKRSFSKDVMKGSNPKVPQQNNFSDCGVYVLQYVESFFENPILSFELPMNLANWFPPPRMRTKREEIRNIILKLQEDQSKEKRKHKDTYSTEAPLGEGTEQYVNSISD

[4] = target: T4, Tyrosyl-DNA phosphodiesterase 2 (Homo sapiens, UniProt O95551); assay: potency against TDP2 phosphodiesterase activity – biochemical, epi absorbance, IC50, dose response (AID 743297)
T4 sequence (O95551 whole entry): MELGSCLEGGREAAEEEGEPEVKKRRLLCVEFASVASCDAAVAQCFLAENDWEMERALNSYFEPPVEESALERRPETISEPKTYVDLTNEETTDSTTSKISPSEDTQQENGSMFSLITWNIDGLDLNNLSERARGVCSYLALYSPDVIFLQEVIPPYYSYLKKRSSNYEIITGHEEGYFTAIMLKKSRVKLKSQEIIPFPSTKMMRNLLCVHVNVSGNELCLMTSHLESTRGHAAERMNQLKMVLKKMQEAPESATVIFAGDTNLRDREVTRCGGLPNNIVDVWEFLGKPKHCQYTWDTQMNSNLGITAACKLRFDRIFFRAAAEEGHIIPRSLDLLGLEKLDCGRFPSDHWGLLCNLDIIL

BJ [5] = assay: BJ-TERT fibroblast viability loss – cell-based, RAS-independent, luminescence, dose response (AID 1933); type: functional; conditions: Homo sapiens
BJ [6] = assay: cells; type: functional, cell-based; conditions: Homo sapiens
[7] = DRD fibroblast viability loss – cell-based, non-viral oncogenic, luminescence, dose response (AID 1934); type: functional; conditions: Homo sapiens

SMILES: Cn1nc(-c2ccc(Cl)cc2)nc2c(=O)n(C)c(=O)nc1-2
- IC50 [1]: 24.7 µM (not active)
- AC50 (INS1): 0.441 µM (active)

SMILES: SC1=Nc2ccccc2C1
- IC50 [1]: 14.9 µM (not active)

SMILES: NS(=O)(=O)c1ccc(NC(=O)COC(=O)c2ccc([N+](=O)[O-])s2)cc1
- IC50 [2]: 7.78 µM (active)
- IC50 [3]: 4.59 µM (active)
- IC50 [4]: 32.2 µM (inactive)

SMILES: CCCCNc1cc(NC(C)=O)cc2cc(OC)c(OC)cc12
- IC50 [2]: 19.9 µM (active)
- IC50 [3]: 6.78 µM (active)
- IC50 [4]: 87.5 µM (inactive)

SMILES: COc1ccc(C(NC(=O)C(C)C)c2ccc3cccnc3c2O)cc1 (stereo not drawn)
- AC50 (INS1): 0.65 µM (active)

SMILES: O=C(Cc1ccc([N+](=O)[O-])cc1)N/N=C/c1ccc([N+](=O)[O-])o1
- EC50 (BJ [5]): > 150 µM (not active)
- EC50 (BJ [6]): 15.6 µM (active)
- EC50 [7]: 38.3 µM (active)
